# In PubChem BioAssay AID2060901 (Molecular Pharmacology Branch, DTP, NCI, 2025):
# Test system: 422866-222-R5-J1-PDC complex spheroids viability
# Experiment: Anticancer human tumor 422866-222-R5-J1-PDC patient-derived pancreatic adenocarcinoma cell line growth inhibition [RAS]
# Conditions: for IC50: curve of first compound; for viability, T/C: stronger effect = lower value
# How it was run: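 Multi-cell-type spheroids: tumor cells plus HUVEC endothelial cells and mesenchymal stem cells. RAS-pathway inhibitors were combined with targeted agents, each dosed in half-log steps down from clinical Cmax, or from 10 microM when Cmax was unknown.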
# [1] = second compound 0.000949 µM, first compound 0.0316 µM
# [2] = second compound 0.000949 µM, first compound 0.1 µM
# [3] = second compound 0.000949 µM, first compound 0.316 µM
# [4] = second compound 0.000949 µM, first compound 1 µM
# [5] = second compound 0.003 µM, first compound 0.0316 µM
# [6] = second compound 0.003 µM, first compound 0.1 µM
# [7] = second compound 0.003 µM, first compound 0.316 µM
# [8] = second compound 0.003 µM, first compound 1 µM
# [9] = second compound 0.00949 µM, first compound 0.0316 µM
# [10] = second compound 0.00949 µM, first compound 0.1 µM
# [11] = second compound 0.00949 µM, first compound 0.316 µM
# [12] = second compound 0.00949 µM, first compound 1 µM
# [13] = second compound 0.03 µM, first compound 0.0316 µM
# [14] = second compound 0.03 µM, first compound 0.1 µM
# [15] = second compound 0.03 µM, first compound 0.316 µM
# [16] = second compound 0.03 µM, first compound 1 µM
# [17] = second compound 0.0949 µM, first compound 0.0316 µM
# [18] = second compound 0.0949 µM, first compound 0.1 µM
# [19] = second compound 0.0949 µM, first compound 0.316 µM
# [20] = second compound 0.0949 µM, first compound 1 µM
# [21] = second compound 0.3 µM, first compound 0.0316 µM
# [22] = second compound 0.3 µM, first compound 0.1 µM
# [23] = second compound 0.3 µM, first compound 0.316 µM
# [24] = second compound 0.3 µM, first compound 1 µM
# 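Further: spheroids exposed to compounds for 7 days.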
# 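Wherever viability, T/C is given: 100% = DMSO vehicle control viability.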
smiles,measurement,setting,value
C=CC(=O)Nc1cc(Nc2nccc(-c3cn(C)c4ccccc34)n2)c(OC)cc1N(C)CCN(C)C + CCn1c(-c2cc(N3CCN(C)CC3)cnc2C(C)OC)c2c3cc(ccc31)-c1csc(n1)CC(NC(=O)C1CC1C)C(=O)N1CCCC(N1)C(=O)OCC(C)(C)C2,IC50,second compound 0.000949 µM,< 3.16 nM
same,IC50,second compound 0.003 µM,< 3.16 nM
same,IC50,second compound 0.00949 µM,< 3.16 nM
same,IC50,second compound 0.03 µM,< 3.16 nM
same,IC50,second compound 0.0949 µM,< 3.16 nM
same,IC50,second compound 0.3 µM,< 3.16 nM
same,"viability, T/C","second compound 0.000949 µM, first compound 0.00316 µM",32.2%
same,"viability, T/C","second compound 0.000949 µM, first compound 0.01 µM",25.2%
same,"viability, T/C",[1],26.4%
same,"viability, T/C",[2],21.6%
same,"viability, T/C",[3],23.1%
same,"viability, T/C",[4],24.7%
same,"viability, T/C","second compound 0.003 µM, first compound 0.00316 µM",26.1%
same,"viability, T/C","second compound 0.003 µM, first compound 0.01 µM",20.3%
same,"viability, T/C",[5],20.2%
same,"viability, T/C",[6],17.2%
same,"viability, T/C",[7],16.4%
same,"viability, T/C",[8],18.9%
same,"viability, T/C","second compound 0.00949 µM, first compound 0.00316 µM",20.4%
same,"viability, T/C","second compound 0.00949 µM, first compound 0.01 µM",17.9%
same,"viability, T/C",[9],17%
same,"viability, T/C",[10],14.1%
same,"viability, T/C",[11],14.5%
same,"viability, T/C",[12],17.1%
same,"viability, T/C","second compound 0.03 µM, first compound 0.00316 µM",19.9%
same,"viability, T/C","second compound 0.03 µM, first compound 0.01 µM",18.6%
same,"viability, T/C",[13],16.8%
same,"viability, T/C",[14],14.4%
same,"viability, T/C",[15],15.1%
same,"viability, T/C",[16],15.6%
same,"viability, T/C","second compound 0.0949 µM, first compound 0.00316 µM",20%
same,"viability, T/C","second compound 0.0949 µM, first compound 0.01 µM",17.4%
same,"viability, T/C",[17],19.2%
same,"viability, T/C",[18],16.9%
same,"viability, T/C",[19],16.1%
same,"viability, T/C",[20],18.7%
same,"viability, T/C","second compound 0.3 µM, first compound 0.00316 µM",19.3%
same,"viability, T/C","second compound 0.3 µM, first compound 0.01 µM",20.9%
same,"viability, T/C",[21],19.1%
same,"viability, T/C",[22],16.5%
same,"viability, T/C",[23],16.5%
same,"viability, T/C",[24],20.8%
C[C@@H](NC(=O)c1ncnc(N)c1Cl)c1ncc(C(=O)Nc2cc(C(F)(F)F)c(Cl)cn2)s1 + CCn1c(-c2cc(N3CCN(C)CC3)cnc2C(C)OC)c2c3cc(ccc31)-c1csc(n1)CC(NC(=O)C1CC1C)C(=O)N1CCCC(N1)C(=O)OCC(C)(C)C2,IC50,second compound 0.000949 µM,< 31.6 nM
same,IC50,second compound 0.003 µM,< 31.6 nM
same,IC50,second compound 0.00949 µM,< 31.6 nM
same,IC50,second compound 0.03 µM,< 31.6 nM
same,IC50,second compound 0.0949 µM,< 31.6 nM
same,IC50,second compound 0.3 µM,< 31.6 nM
same,"viability, T/C",[1],33.8%
same,"viability, T/C",[2],40.3%
same,"viability, T/C",[3],33.5%
same,"viability, T/C",[4],36.9%
same,"viability, T/C","second compound 0.000949 µM, first compound 3.16 µM",39.1%
same,"viability, T/C","second compound 0.000949 µM, first compound 10 µM",37.2%
same,"viability, T/C",[5],24.8%
same,"viability, T/C",[6],26.4%
same,"viability, T/C",[7],26.2%
same,"viability, T/C",[8],25.8%
same,"viability, T/C","second compound 0.003 µM, first compound 3.16 µM",26.1%
same,"viability, T/C","second compound 0.003 µM, first compound 10 µM",30.1%
same,"viability, T/C",[9],21%
same,"viability, T/C",[10],20.3%
same,"viability, T/C",[11],21.1%
same,"viability, T/C",[12],22.2%
same,"viability, T/C","second compound 0.00949 µM, first compound 3.16 µM",24.3%
same,"viability, T/C","second compound 0.00949 µM, first compound 10 µM",24.3%
same,"viability, T/C",[13],20.4%
same,"viability, T/C",[14],19.8%
same,"viability, T/C",[15],20.8%
same,"viability, T/C",[16],23.8%
same,"viability, T/C","second compound 0.03 µM, first compound 3.16 µM",24.1%
same,"viability, T/C","second compound 0.03 µM, first compound 10 µM",22.2%
same,"viability, T/C",[17],21.3%
same,"viability, T/C",[18],20.6%
same,"viability, T/C",[19],21.1%
same,"viability, T/C",[20],19.9%
same,"viability, T/C","second compound 0.0949 µM, first compound 3.16 µM",23.1%
same,"viability, T/C","second compound 0.0949 µM, first compound 10 µM",24.3%
same,"viability, T/C",[21],19.5%
same,"viability, T/C",[22],20.2%
same,"viability, T/C",[23],21.4%
same,"viability, T/C",[24],20.9%
same,"viability, T/C","second compound 0.3 µM, first compound 3.16 µM",22.6%
same,"viability, T/C","second compound 0.3 µM, first compound 10 µM",24.8%
